Source: patent publication US20210094954A1, “PREPARATION METHODS AND APPLICATIONS OF 3,5-DISUBSTITUTED METHYLPYRAZOLO[1,5-A]PYRIMIDINE-7-HYDROXYLIC SALTS” (priority 2019, published 2021)
Like-named read-outs stand apart in the source and are kept apart here.

What was measured:
[1] = tested on: Streptococcus agalactia B group; assay: microbe, parasite or virus in culture; format: cell-based; conditions: Streptococcus; 37° C., 24 hours; read-out: MIC values of in vitro antibacterial test results
Bacillus subtilis 168 = assay: microbe, parasite or virus in culture; format: cell-based; conditions: Bacillus subtilis, 168; 37° C., 24 hours; read-out: MIC values of in vitro antibacterial test results
Diphtheria bacilli = assay: organism not typed; format: cell-based; conditions: 37° C., 24 hours; read-out: MIC values of in vitro antibacterial test results
[2] = tested on: Streptococcus pneumoniae M2; assay: microbe, parasite or virus in culture; format: cell-based; conditions: Streptococcus pneumoniae, M2; 37° C., 24 hours; read-out: MIC values of in vitro antibacterial test results
[3] = tested on: Enterococcus faecalis F2518(VRE); assay: microbe, parasite or virus in culture; format: cell-based; conditions: Enterococcus faecalis, VRE, 24 h, read-out: MIC values of in vitro antibacterial test results
[4] = tested on: F2518(VRE), Staphylococcus aureus resistant strain 43300(MRSA), 703 (MRSA), pneumococcal resistance bacteria 6303(PRSP); assay: microbe, parasite or virus in culture; format: cell-based; conditions: read-out: MIC values (μM)
[5] = tested on: Enterococcus faecalis 29212; assay: microbe, parasite or virus in culture; format: cell-based; conditions: Enterococcus faecalis, 29212; 37° C., 24 hours; read-out: MIC values of in vitro antibacterial test results
Clostridium perfringens = assay: microbe, parasite or virus in culture; format: cell-based; conditions: Clostridium perfringens, 24 h, read-out: MIC values of in vitro antibacterial test results
[6] = tested on: Streptococcus pneumoniae 10351; assay: microbe, parasite or virus in culture; format: cell-based; conditions: Streptococcus pneumoniae, 10351; 37° C., 24 hours; read-out: MIC values of in vitro antibacterial test results
[7] = tested on: Staphylococcus aureus 43300 (MRSA); assay: antibacterial study in vivo, survival of infected kunming mice; conditions: 30 days of observation
[8] = tested on: Staphylococcus aureus 43300(MRSA); assay: microbe, parasite or virus in culture; format: cell-based; conditions: Staphylococcus aureus, MRSA, 24 h, read-out: MIC values of in vitro antibacterial test results
[9] = tested on: Streptococcus pneumoniae 6303 (PRSP); assay: microbe, parasite or virus in culture; format: cell-based; conditions: Streptococcus pneumoniae, PRSP, 24 h, read-out: MIC values of in vitro antibacterial test results
[10] = tested on: Bacillus anthracis Bacillus 1; assay: microbe, parasite or virus in culture; format: cell-based; conditions: Bacillus anthracis, 24 h, read-out: MIC values of in vitro antibacterial test results
[11] = tested on: Staphylococcus aureus 29231; assay: microbe, parasite or virus in culture; format: cell-based; conditions: Staphylococcus aureus, 29231; 37° C., 24 hours; read-out: MIC values of in vitro antibacterial test results
Oral Candida = assay: microbe, parasite or virus in culture; format: cell-based; conditions: Candida
Bacillus cereus 2 = assay: microbe, parasite or virus in culture; format: cell-based; conditions: Bacillus cereus, 2; 37° C., 24 hours; read-out: MIC values of in vitro antibacterial test results
Peel fungus = assay: organism not typed; format: cell-based; conditions: 37° C., 24 hours; read-out: MIC values of in vitro antibacterial test results
[12] = tested on: Staphylococcus aureus 703(MRSA); assay: microbe, parasite or virus in culture; format: cell-based; conditions: Staphylococcus aureus, MRSA, 24 h, read-out: MIC values of in vitro antibacterial test results
[13] = 37° C., 24 hours, read-out: MIC values of in vitro antibacterial test results

| Structure (SMILES) | MIC [1] [µg/mL] | MIC (Bacillus subtilis 168) [µg/mL] | MIC (Diphtheria bacilli) [µg/mL] | MIC [2] [µg/mL] | MIC [3] [µg/mL] | MIC [4] [µg/mL] | MIC [5] [µg/mL] | MIC (Clostridium perfringens) [µg/mL] | MIC [6] [µg/mL] | Survival days ([7]; dosage 25 mg/kg) [days] | MIC [8] [µg/mL] | MIC [9] [µg/mL] | MIC [10] [µg/mL] | MIC [11] [µg/mL] | MIC (Oral Candida; read-out: MIC values (μM)) [µg/mL] | MIC (Oral Candida; [13]) [µg/mL] | MIC (Bacillus cereus 2) [µg/mL] | MIC (Peel fungus) [µg/mL] | MIC [12] [µg/mL] | Survival days ([7]; dosage 30 mg/kg) [days] |
| --- | --- | --- | --- | --- | --- | --- | --- | --- | --- | --- | --- | --- | --- | --- | --- | --- | --- | --- | --- | --- |
| Cc1nn2c([O-])cc(-c3ccc(S(N)(=O)=O)cc3)nc2c1-c1ccc(F)cc1F.[Na+] [Compound 9, Sodium 3-(2,4-difluorophenyl)-2-methyl-5-(4-sulfamoylphenyl)pyrazolo[1,5-α]pyrimidin-7-olate] | < 150 | < 100 | > 150 | < 100 | < 150 | < 100 | < 100 | > 150 | < 100 | 3.0 | < 100 | < 150 | > 150 | < 100 | < 100 | < 100 | < 150 | > 150 | < 100 | – |
| Cc1nn2c([O-])cc(-c3ccc(Oc4ccccc4)cc3)nc2c1-c1ccc(F)cc1F.[Na+] [Compound 10, Sodium 3-(2,4-difluorophenyl)-2-methyl-5-(4-phenoxyphenyl)pyrazolo[1,5-α]pyrimidin-7-olate] | < 150 | < 100 | > 150 | < 150 | < 150 | < 100 | < 100 | > 150 | < 100 | 3.5 | < 150 | < 150 | > 150 | < 100 | – | < 150 | < 100 | < 150 | < 100 | – |
| Cc1nn2c([O-])cc(-c3ccc(Oc4ccccc4)nc3)nc2c1-c1ccc(F)cc1F.[Na+] [Compound 30, Sodium 3-(2,4-difluorophenyl)-2-methyl-5-(6-phenoxypyridin-3-yl)pyrazolo[1,5-α]pyrimidin-7-olate] | > 150 | > 150 | > 150 | < 100 | < 150 | < 100 | < 150 | > 150 | > 150 | – | < 100 | > 150 | > 150 | > 150 | < 100 | < 100 | < 150 | < 150 | < 150 | 2.4 |
